Source: ChEMBL document CHEMBL5696439 (Cancer Res, 2010)
The source made the active and inactive calls. No cut-off for these calls is given here.

Columns and labels:
[1] = target: RAC-beta serine/threonine-protein kinase (Homo sapiens) (UniProt P31751); assay: Inhibition of recombinant human full-length His-tagged AKT2 expressed in insect cells at 2 uM using Ser/Thr 06 as substrate measured after 1 hr by Z'-LYTE assay relative to control; conditions: Insect cell
[2] = target: Dual specificity tyrosine-phosphorylation-regulated kinase 3 (Homo sapiens) (UniProt O43781); assay: Inhibition of recombinant human full-length GST-tagged DYRK3 expressed in insect cells at 2 uM using Ser/Thr 09 as substrate measured after 1 hr by Z'-LYTE assay relative to control; conditions: Insect cell
[3] = target: Epidermal growth factor receptor (Homo sapiens) (UniProt P00533); assay: Inhibition of recombinant human GST-tagged EGFR (668-1210 residues) expressed in insect cells at 2 uM using Tyr 04 as substrate measured after 1 hr by Z'-LYTE assay relative to control; conditions: Insect cell
Chain of Epidermal growth factor receptor (Homo sapiens) (P00533 whole entry, the tested form may be a part): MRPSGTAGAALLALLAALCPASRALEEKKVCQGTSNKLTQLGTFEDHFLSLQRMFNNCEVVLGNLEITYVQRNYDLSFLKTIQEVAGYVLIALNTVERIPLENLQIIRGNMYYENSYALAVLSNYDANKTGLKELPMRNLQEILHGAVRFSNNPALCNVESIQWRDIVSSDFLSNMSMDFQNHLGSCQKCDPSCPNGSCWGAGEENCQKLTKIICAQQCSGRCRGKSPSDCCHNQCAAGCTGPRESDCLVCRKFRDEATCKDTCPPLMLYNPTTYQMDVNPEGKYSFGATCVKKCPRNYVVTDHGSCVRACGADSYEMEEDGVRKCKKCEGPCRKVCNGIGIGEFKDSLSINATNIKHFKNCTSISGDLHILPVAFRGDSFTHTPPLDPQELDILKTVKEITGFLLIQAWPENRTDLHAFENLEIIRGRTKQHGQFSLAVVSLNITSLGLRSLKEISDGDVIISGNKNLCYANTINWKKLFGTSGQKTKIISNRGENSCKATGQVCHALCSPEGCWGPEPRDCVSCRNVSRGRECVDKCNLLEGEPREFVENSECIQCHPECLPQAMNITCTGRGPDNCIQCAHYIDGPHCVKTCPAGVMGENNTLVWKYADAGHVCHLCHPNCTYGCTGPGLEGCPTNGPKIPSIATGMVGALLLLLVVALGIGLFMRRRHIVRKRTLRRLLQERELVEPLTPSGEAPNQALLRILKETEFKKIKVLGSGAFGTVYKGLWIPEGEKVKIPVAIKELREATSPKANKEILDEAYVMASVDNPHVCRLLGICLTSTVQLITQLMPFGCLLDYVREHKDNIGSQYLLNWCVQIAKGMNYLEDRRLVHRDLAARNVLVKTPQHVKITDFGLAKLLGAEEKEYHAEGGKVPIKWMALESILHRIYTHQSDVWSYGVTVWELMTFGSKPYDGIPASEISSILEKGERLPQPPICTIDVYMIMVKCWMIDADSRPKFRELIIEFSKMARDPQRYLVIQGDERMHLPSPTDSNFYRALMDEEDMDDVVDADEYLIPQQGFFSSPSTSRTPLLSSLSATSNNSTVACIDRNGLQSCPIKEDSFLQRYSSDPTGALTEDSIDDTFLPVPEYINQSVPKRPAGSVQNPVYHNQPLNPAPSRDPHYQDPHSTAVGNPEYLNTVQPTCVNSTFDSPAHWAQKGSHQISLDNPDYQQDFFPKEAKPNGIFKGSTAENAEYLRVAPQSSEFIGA

[4] = system: Epidermal growth factor receptor (Homo sapiens), P00533 [L861Q]; assay: Inhibition of recombinant human GST-tagged EGFR L861Q mutant (668-1210 residues) expressed in insect cells at 2 uM using Tyr 04 as substrate measured after 1 hr by Z'-LYTE assay relative to control; conditions: Insect cell
[5] = target: Ephrin type-A receptor 3 (Homo sapiens) (UniProt P29320); assay: Inhibition of recombinant human His-tagged EPHA3 (568-976 residues) expressed in baculovirus expression system at 2 uM measured after 1 hr by Z'-LYTE assay relative to control
Chain of Ephrin type-A receptor 3 (Homo sapiens) (P29320 whole entry, the tested form may be a part): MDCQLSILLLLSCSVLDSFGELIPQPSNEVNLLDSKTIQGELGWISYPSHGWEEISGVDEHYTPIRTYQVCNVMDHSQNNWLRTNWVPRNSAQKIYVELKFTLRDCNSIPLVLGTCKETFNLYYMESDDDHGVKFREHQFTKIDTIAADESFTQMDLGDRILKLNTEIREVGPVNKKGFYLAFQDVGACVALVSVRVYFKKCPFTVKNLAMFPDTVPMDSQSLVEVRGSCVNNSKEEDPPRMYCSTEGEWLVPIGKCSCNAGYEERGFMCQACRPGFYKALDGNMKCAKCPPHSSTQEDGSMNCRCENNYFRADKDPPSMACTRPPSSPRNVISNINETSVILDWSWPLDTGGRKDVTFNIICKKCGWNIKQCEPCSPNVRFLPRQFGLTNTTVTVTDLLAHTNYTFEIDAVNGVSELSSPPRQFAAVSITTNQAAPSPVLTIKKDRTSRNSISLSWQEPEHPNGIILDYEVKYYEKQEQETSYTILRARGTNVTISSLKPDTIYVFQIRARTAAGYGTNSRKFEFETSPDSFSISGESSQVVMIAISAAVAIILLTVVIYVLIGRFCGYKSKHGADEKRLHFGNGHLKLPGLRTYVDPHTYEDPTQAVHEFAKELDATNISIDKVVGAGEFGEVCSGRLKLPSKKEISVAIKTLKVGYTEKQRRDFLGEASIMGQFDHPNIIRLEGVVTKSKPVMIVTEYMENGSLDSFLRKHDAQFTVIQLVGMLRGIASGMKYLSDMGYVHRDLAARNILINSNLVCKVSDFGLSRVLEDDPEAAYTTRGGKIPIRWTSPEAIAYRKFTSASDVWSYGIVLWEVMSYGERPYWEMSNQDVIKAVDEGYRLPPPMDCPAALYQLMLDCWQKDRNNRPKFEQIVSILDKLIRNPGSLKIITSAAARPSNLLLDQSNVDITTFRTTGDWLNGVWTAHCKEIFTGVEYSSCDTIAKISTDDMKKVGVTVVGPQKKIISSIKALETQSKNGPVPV

[6] = target: Fibroblast growth factor receptor 4 (Homo sapiens) (UniProt P22455); assay: Inhibition of recombinant human His-tagged FGFR4 ([…] residues) expressed in insect cells at 2 uM using Tyr 04 as substrate measured after 1 hr by Z'-LYTE assay relative to control; conditions: Insect cell
[7] = target: Vascular endothelial growth factor receptor 3 (Homo sapiens) (UniProt P35916); assay: Inhibition of recombinant human GST-tagged FLT4 (800-1297 residues) expressed in insect cells at 2 uM using Tyr 04 as substrate measured after 1 hr by Z'-LYTE assay relative to control; conditions: Insect cell
Chain of Vascular endothelial growth factor receptor 3 (Homo sapiens) (P35916 whole entry, the tested form may be a part): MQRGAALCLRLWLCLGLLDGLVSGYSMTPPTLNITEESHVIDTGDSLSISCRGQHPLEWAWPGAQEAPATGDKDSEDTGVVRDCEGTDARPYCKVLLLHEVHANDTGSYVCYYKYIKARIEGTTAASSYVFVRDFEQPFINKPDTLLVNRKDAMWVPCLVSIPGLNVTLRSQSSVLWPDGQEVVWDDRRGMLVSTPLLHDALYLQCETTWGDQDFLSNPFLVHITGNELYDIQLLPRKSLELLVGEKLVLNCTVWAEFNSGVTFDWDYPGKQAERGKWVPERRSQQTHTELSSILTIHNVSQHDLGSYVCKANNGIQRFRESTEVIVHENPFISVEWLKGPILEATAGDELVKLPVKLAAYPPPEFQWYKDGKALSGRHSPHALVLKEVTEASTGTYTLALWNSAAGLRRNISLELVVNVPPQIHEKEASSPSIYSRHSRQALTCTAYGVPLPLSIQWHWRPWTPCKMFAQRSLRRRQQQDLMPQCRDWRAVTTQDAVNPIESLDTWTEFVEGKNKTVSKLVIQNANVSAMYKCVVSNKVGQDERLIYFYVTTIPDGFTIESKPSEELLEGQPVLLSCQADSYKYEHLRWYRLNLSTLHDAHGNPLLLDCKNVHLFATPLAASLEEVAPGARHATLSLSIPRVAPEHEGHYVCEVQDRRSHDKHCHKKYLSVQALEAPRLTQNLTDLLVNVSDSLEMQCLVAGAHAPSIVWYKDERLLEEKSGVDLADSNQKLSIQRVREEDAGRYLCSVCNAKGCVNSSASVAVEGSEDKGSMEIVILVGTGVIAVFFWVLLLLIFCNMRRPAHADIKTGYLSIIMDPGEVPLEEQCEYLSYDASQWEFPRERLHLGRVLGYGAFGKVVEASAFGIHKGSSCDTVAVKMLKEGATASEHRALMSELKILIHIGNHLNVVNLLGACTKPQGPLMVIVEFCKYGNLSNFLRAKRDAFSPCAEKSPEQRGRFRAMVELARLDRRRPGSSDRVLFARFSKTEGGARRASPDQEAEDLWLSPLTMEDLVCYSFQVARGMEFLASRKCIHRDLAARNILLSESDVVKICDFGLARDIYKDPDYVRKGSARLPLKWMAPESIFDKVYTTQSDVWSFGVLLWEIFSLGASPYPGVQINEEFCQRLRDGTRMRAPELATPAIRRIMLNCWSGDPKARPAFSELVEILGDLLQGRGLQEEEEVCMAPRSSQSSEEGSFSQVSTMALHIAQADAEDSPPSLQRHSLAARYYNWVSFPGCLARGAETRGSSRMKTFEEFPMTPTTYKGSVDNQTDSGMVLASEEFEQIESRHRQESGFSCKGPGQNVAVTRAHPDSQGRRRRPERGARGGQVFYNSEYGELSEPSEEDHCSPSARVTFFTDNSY

[8] = target: G protein-coupled receptor kinase 6 (Homo sapiens) (UniProt P43250); assay: Inhibition of recombinant human full-length GST-tagged GRK6 expressed in insect cells at 2 uM using Ser/Thr 16 as substrate measured after 1 hr by Z'-LYTE assay relative to control; conditions: Insect cell
[9] = target: Myosin light chain kinase 2, skeletal/cardiac muscle (Homo sapiens) (UniProt Q9H1R3); assay: Inhibition of recombinant human full length GST-tagged MYLK2 expressed in insect cells at 2 uM using Ser/Thr 13 as substrate measured after 1 hr by Z'-LYTE assay relative to control; conditions: Insect cell
Chain of Myosin light chain kinase 2, skeletal/cardiac muscle (Homo sapiens) (Q9H1R3 whole entry): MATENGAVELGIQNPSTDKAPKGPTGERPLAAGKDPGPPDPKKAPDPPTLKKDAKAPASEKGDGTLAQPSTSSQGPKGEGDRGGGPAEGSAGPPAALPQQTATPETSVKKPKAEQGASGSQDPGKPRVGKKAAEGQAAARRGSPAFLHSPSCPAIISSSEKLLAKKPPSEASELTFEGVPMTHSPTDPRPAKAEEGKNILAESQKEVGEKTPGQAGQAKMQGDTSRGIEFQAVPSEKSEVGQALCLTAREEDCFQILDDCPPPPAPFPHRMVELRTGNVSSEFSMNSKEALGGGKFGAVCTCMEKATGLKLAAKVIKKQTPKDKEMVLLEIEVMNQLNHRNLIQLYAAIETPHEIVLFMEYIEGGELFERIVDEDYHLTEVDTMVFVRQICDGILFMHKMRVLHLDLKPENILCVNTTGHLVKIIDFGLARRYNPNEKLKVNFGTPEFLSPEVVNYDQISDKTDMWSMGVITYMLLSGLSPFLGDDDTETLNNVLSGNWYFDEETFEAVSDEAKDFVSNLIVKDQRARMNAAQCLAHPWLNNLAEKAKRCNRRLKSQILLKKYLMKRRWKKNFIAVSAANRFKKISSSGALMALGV

[10] = target: Serine/threonine-protein kinase PAK 3 (Homo sapiens) (UniProt O75914); assay: Inhibition of recombinant human full length His-tagged PAK3 expressed in insect cells at 2 uM using Ser/Thr 20 as substrate measured after 1 hr by Z'-LYTE assay relative to control; conditions: Insect cell
[11] = target: PAS domain-containing serine/threonine-protein kinase (Homo sapiens) (UniProt Q96RG2); assay: Inhibition of recombinant human GST-tagged PASK (879-1323 residues) expressed in insect cells at 2 uM using Ser/Thr 07 as substrate measured after 1 hr by Z'-LYTE assay relative to control; conditions: Insect cell
[12] = target: Serine/threonine-protein kinase PLK2 (Homo sapiens) (UniProt Q9NYY3); assay: Inhibition of recombinant human full length GST-tagged PLK2 expressed in baculovirus expression system at 2 uM using Ser/Thr 16 as substrate measured after 1 hr by Z'-LYTE assay relative to control
[13] = system: Proto-oncogene tyrosine-protein kinase receptor Ret (Homo sapiens), P07949 [Y791F]; assay: Inhibition of recombinant human GST-tagged RET Y791F mutant (658-1114 residues) expressed in baculovirus expression system at 2 uM using Tyr 02 as substrate measured after 1 hr by Z'-LYTE assay relative to control
[14] = target: Serine/threonine-protein kinase Sgk1 (Homo sapiens) (UniProt O00141); assay: Inhibition of recombinant human GST-tagged SGK (60-431 residues) expressed in insect cells at 2 uM using Ser/Thr 06 as substrate measured after 1 hr by Z'-LYTE assay relative to control; conditions: Insect cell
Chain of Serine/threonine-protein kinase Sgk1 (Homo sapiens) (O00141 whole entry, the tested form may be a part): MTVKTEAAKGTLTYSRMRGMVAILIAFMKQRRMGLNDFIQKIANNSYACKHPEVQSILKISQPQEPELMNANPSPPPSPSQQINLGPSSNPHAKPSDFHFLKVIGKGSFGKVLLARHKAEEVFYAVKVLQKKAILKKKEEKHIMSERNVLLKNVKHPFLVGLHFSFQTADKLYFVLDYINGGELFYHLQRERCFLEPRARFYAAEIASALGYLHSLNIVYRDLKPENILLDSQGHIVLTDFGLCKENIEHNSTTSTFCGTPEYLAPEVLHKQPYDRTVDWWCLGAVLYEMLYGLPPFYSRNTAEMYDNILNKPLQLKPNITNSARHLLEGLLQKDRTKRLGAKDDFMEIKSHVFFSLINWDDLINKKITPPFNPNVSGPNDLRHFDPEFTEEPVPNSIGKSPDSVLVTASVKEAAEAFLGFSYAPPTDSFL

[15] = target: Serine/threonine-protein kinase Sgk3 (Homo sapiens) (UniProt Q96BR1); assay: Inhibition of recombinant human GST-tagged SGK3 (87-496 residues) expressed in insect cells at 2 uM using Ser/Thr 06 as substrate measured after 1 hr by Z'-LYTE assay relative to control; conditions: Insect cell
Chain of Serine/threonine-protein kinase Sgk3 (Homo sapiens) (Q96BR1 whole entry, the tested form may be a part): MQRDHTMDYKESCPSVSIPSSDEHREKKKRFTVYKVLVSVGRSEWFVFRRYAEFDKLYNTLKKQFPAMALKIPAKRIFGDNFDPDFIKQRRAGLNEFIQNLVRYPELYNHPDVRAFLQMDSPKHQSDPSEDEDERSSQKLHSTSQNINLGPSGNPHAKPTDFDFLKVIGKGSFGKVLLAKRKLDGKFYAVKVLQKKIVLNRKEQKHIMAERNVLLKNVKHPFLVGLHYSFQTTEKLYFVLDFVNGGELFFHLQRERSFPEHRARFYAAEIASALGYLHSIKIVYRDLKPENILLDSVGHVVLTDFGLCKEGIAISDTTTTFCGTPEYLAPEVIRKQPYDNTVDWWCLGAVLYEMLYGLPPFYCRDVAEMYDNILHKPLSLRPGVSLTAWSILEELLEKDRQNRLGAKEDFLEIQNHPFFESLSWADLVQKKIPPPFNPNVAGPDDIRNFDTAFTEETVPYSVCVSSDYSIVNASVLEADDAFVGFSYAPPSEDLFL

NCI-H1975 = assay: Antiproliferative activity against human NCI-H1975 cells assessed as cell growth inhibition incubated for 24 hrs by MTS assay; assay type: functional, cell-based; conditions: NCI-H1975, 24 h
MDA-MB-468 [16] = assay: Induction of apoptosis in human MDA-MB-468 cells assessed as increase in G1 phase at 1 micromol/L incubated for 24 hrs by FACS analysis; assay type: functional, cell-based; conditions: dose 1.0 µmol/L
MDA-MB-468 [17] = assay: Induction of apoptosis in human MDA-MB-468 cells assessed as reduction in S phase at 1 micromol/L incubated for 24 hrs by FACS analysis; assay type: functional, cell-based; conditions: dose 1.0 µmol/L
MDA-MB-361 [18] = assay: Induction of apoptosis in human MDA-MB-361 cells assessed as induction in cell death at 1 micromol/L incubated for 48 hrs by FACS analysis relative to control; assay type: functional; conditions: dose 1 µmol/L, at 1 µM
MDA-MB-361 [19] = assay: Antitumor activity against human MDA-MB-361 cells assessed as block the hypoxia-induced lactate production in low oxygen at 0.3 micromol/L incubated for 24 hrs; assay type: functional, cell-based; conditions: dose 0.3 µmol/L
HCT-116 = assay: Antitumor activity against human HCT-116 cells xenografted in female nude mouse model assessed as suppression in P-S6K at T389 level at 50 mg/kg, iv administered once a week and measured at least 8 hrs by immunoblot analysis; assay type: functional, organism-based
MDA-MB-361 [20] = assay: Antitumor activity against human MDA-MB-361 cells xenografted in female nude mouse model assessed as tumor growth delay at po qd administered as 5 days on/2 days off regimen for 4 cycles; assay type: functional, organism-based; conditions: dose 5-20 mg/kg, time 28.0 day
A549 [21] = assay: Antitumor activity against human A549 cells xenografted in female nude mouse model assessed as suppression in tumor growth at 10 mg/kg, po qd administered as 5 days on/2 days off regimen for 4 cycles; assay type: functional, organism-based; conditions: time 28.0 day
A549 [22] = assay: Antitumor activity against human A549 cells xenografted in female nude mouse model assessed as substantial regression in large tumor growth at 50 mg/kg, po qd administered as 5 days on/2 days off regimen for 4 cycles; assay type: functional, organism-based; conditions: time 28.0 day
786-0 = assay: Antitumor activity against VHL null-human 786-0 cells xenografted in female nude mouse model assessed as suppression in tumor growth at 25 mg/kg, po qd administered as 5 days on/2 days off regimen for 4 cycles relative to control; assay type: functional; conditions: time 28 day
mTORC2 (Homo sapiens) = mTORC2 (Homo sapiens) (UniProt P42345+Q6R327+Q9BVC4+Q9BPZ7); conditions: PC3MM2, dose 0.1-1 µM, time 6.0 hrs

Q: What does the source list for `CNC(=O)Nc1ccc(-c2nc(N3CC4CCC(C3)O4)c3cnn(C4CCC5(CC4)OCCO5)c3n2)cc1`?
A: inhibition [1]: 5%; inhibition [2]: -1%; inhibition [3]: 1%; inhibition [4]: -1%; inhibition [5]: 4%; inhibition [6]: 4%; inhibition [7]: 4%; inhibition [8]: -1%; inhibition [9]: 8%; inhibition [10]: 1%; inhibition [11]: 3%; inhibition [12]: 1%; inhibition [13]: 2%; inhibition [14]: -2%; inhibition [15]: 3%; IC50 (NCI-H1975): 70 nM; Activity (MDA-MB-468 [16]): Active; Activity (MDA-MB-468 [17]): Active; Activity (MDA-MB-361 [18]): 47%; Activity (MDA-MB-361 [19]): Active; Activity (HCT-116): Active; Activity (MDA-MB-361 [20]): Dose-Dependent Effect; Activity (A549 [21]): Active; Activity (A549 [22]): Active; Activity (786-0): 100%; inhibition (mTORC2 (Homo sapiens)): Active
